Measured values from patent publication US20200096503A1, “CELL MEMBRANE COATED MAGNETIC NANOPARTICLES AND ASSAYS FOR IDENTIFICATION OF TRANSMEMBRANE PROTEIN-BINDING COMPOUNDS” (The Board of Trustees of The University of Alabama, priority 2018, published 2020).

Experiments:
[1] = tested on: nicotinic receptors; assay: Ligand fishing with CMNPs with immobilized nicotinic receptors, artificial mixture of known binders and non-binders; assay type: binding; settings: equimolar (100 nM) artificial mixture; three washes with ammonium acetate buffer; elution buffer:methanol (9:1, v/v)
Experimental: Fishing experiments can be used to evaluate the CMNP assay. As an example, CMNPs were constructed with immobilized nicotinic receptors. Parameters include selectivity, detection limit, stability, and reuse of CMNPs. The assay or fishing experiment (FIG. 3A) involves magnetic separation of CMNPs with bound compounds after 20 min incubation in an artificial mixture of known binders and nonbinders. After 3 washes with buffer, receptor-bound compounds are released during the elution process. Eluted compounds can be analyzed by high-performance liquid chromatography coupled with diode-array detection and electrospray ionization tandem mass spectrometry (HPLC-DAD-MS).
(§1) Screening experiments can be conducted with samples of various level of complexity (artificial mixtures, natural extracts with known binders). First, artificial mixtures of known binders and non-binders can be used to evaluate selectivity. In a particular example, CMNPs containing nicotinic receptors were prepared. An artificial equimolar (100 nM) mixture of known binders and non-binders was also prepared. Known binders included known nicotinic receptor binders: nicotine (#1), anabasine (#2), cytisine (#3) and non-binders: butyrylcholine iodide (#4), berberine (#5), warfarin (#6) and caffeic acid (#7). First, the CMNPs (˜10^9) were placed in 0.5 mL artificial mixture and incubated. CMNPs were subsequently washed three times with ammonium acetate buffer. After washing, CMNPs were eluted with a buffer:methanol (9:1, v/v) mixture. In both the washing and elution steps, CMNPs were separated from supernatant using a magnet.

[2] = tested on: CMNPs prepared using parental HEK cell line not expressing nicotinic receptors; assay: Fishing with negative control CMNPs prepared from parental HEK cell line not expressing nicotinic receptors; assay type: binding; settings: fishing experiments, data not shown
Experimental: as §1
As an example, CMNPs containing nicotinic receptors were used to screen a different set of potential binders in a crude mixture: that of tobacco smoke condensates (FIG. 5). The results obtained with nicotinic receptor CMNPs were compared with those obtained for negative control CMNPs. […] Therefore, the only difference between nicotinic and negative control CMNPs is the absence of nicotinic receptors in control CMNPs. After three washes with ammonium acetate buffer, the CMNPs were eluted using first ammonium acetate buffer:methanol mixture (9:1, v/v; elutions 1-3), and then ammonium acetate buffer methanol mixture (1:9, v/v, elution 4).

[3] = target: T1, TrkB receptors (Homo sapiens, UniProt Q16620); assay: Fishing experiments with CMNPs with immobilized TrkB receptors, artificial mixture; assay type: binding; settings: equimolar (100 nM) mixture, HPLC-ESI-MS of washing and elution profiles
T1 construct: expressed in transfected cells; host or cells: SH-SY5Y neuroblastoma cells stably overexpressing TrkB
Experimental: Functional TrkB receptors (example of tyrosine kinase receptors) were immobilized on nanoparticles using the CMNPs technology described herein. Neuroblastoma SH-SY5Y cell line stably overexpressing TrkB receptors were used. Cell membrane fragments and nanoparticles used in the preparation of CMNPs were obtained using the previously optimized protocols, as described for the nicotinic receptors.
The fishing experiments were performed using the procedure previously optimized and described herein for nicotinic receptors. Washing and elution steps were performed using solvents previously reported for nicotinic receptor experiments. The difference between nicotinic and TrkB receptor experiments was with the type of artificial mixture components.

[4] = tested on: negative control CMNPs prepared with the parental SH-SY5Y cell line without TrkB receptors; assay: Fishing with negative control CMNPs prepared with the parental SH-SY5Y cell line without TrkB receptors; assay type: binding
Excerpt: The use of negative control CMNPs prepared with the parental SH-SY5Y cell line without TrkB receptors allowed discernment between specific and non-specific interactions. […] Compounds interacting only with CMNPs expressing TrkB receptors and not interacting with negative control CMNPs are specifically binding with TrkB receptors.

[5] = target: T1, TrkB receptors; assay: Conversion of ATP to ADP by immobilized TrkB receptors on CMNPs (HPLC-ESI-MS); assay type: biochemical; settings: for conversion of ATP to ADP by CMNPs with TrkB receptors: 5 mM ATP, 100 μM activator
Experimental: To further test the activity of the immobilized TrkB receptors, additional experiments that focused on determining the ability of the immobilized receptors to convert ATP to ADP were performed, a process commonly performed by all types of tyrosine kinase receptors. Tyrosine kinases, when active, convert ATP to ADP as they use phosphate groups to phosphorylate targeted proteins in the process of signal transduction inside a cell. […] 37° C.

T1 sequence (Q16620 32-822): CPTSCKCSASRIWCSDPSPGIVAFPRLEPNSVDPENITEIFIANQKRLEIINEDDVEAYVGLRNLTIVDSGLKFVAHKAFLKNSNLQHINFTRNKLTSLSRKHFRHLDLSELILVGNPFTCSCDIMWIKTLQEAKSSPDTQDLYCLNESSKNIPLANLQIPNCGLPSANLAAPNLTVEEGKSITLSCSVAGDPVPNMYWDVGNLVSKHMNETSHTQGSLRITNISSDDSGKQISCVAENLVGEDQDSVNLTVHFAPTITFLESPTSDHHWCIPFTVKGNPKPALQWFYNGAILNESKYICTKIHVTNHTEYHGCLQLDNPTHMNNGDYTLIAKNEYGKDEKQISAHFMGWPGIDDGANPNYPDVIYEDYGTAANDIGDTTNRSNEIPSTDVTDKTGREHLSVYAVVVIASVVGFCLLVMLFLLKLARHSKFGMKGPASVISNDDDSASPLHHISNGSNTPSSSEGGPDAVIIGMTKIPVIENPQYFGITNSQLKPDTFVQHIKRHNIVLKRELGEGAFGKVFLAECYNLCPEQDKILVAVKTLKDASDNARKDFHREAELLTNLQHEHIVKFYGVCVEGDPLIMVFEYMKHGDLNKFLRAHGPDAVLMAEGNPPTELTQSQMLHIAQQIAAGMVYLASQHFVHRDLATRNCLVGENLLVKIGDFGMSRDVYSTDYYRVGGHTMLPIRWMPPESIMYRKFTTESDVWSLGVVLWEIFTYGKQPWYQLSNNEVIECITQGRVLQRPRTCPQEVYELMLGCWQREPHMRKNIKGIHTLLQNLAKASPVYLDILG

Structure (SMILES) | retention by CMNPs with immobilized nicotinic receptors (washing/elution, HPLC) [1] | nonspecific binding to CMNPs from parental HEK cell line not expressing nicotinic receptors [2] | other results
COc1ccc2cc3[n+](cc2c1OC)CCc1cc2c(cc1-3)OCO2 [berberine] | absence | – | –
CN1CCCC1c1cccnc1 (stereo not drawn) [nicotine] | selectively retained | lack of nonspecific binding | retention by / interaction with CMNPs with immobilized TrkB receptors [3]: retained small amount; retention by / interaction with CMNPs with immobilized TrkB receptors ([3]; listed as Nicotine): interacted both with CMNPs with and without TrkB receptors; interaction with negative control CMNPs without TrkB receptors [4]: interacted both with CMNPs with and without TrkB receptors
O=C(O)/C=C/c1ccc(O)c(O)c1 [caffeic acid] | absence | – | –
c1cncc([C@@H]2CCCCN2)c1 [anabasine] | selectively retained | lack of nonspecific binding | –
CCCC(=O)OCC[N+](C)(C)C.[I-] [butyrylcholine, butyrylcholine iodide] | absence | – | –
O=c1cccc2n1C[C@@H]1CNC[C@H]2C1 [cytisine] | selectively retained | lack of nonspecific binding | –
O=c1cc(-c2ccccc2)oc2c(O)c(O)ccc12 [7,8-dihydroxyflavone] | – | – | retention by / interaction with CMNPs with immobilized TrkB receptors [3]: interacted only with CMNPs with TrkB receptors; retention by / interaction with CMNPs with immobilized TrkB receptors ([3]; listed as 7,8-DHF): retained; interaction with negative control CMNPs without TrkB receptors [4]: no interaction; conversion of ATP to ADP by CMNPs with TrkB receptors ([5]; 24-hour incubation, 4° C.): almost complete conversion of ATP to ADP; conversion of ATP to ADP by CMNPs with TrkB receptors ([5]; 30 and 60 min, 37° C.): progressing conversion of ATP to ADP; conversion of ATP to ADP by nanoparticles themselves (structures inside CMNPs) ([5]; nanoparticles without cell membrane, ATP (5 mM), activator 100 μM): did not lead to the conversion of ATP to ADP
